Reference: article PMC7932537, “Quantitative profiling of protease specificity” (PLoS Computational Biology, 2021)

Key:
MMP-9 = MMP-9 (Homo sapiens, UniProt P14780); test: K(obs) of individual phage substrates (set of 1369); type: biochemical; details: MMP9
MMP-2 [1] = test: Substrate phage display with NGS: relative probability (RP) of P3-P1' tetramer clusters; type: biochemical, human; details: MMP2;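 note: ratio of tetramer probability after protease selection to that in naive phage library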
MMP-2 [2] = target: T1, MMP-2 (Homo sapiens, UniProt P08253); test: K(obs) of individual phage substrates (set of 1369); type: biochemical; details: MMP2
T1 sequence (P08253 110-660): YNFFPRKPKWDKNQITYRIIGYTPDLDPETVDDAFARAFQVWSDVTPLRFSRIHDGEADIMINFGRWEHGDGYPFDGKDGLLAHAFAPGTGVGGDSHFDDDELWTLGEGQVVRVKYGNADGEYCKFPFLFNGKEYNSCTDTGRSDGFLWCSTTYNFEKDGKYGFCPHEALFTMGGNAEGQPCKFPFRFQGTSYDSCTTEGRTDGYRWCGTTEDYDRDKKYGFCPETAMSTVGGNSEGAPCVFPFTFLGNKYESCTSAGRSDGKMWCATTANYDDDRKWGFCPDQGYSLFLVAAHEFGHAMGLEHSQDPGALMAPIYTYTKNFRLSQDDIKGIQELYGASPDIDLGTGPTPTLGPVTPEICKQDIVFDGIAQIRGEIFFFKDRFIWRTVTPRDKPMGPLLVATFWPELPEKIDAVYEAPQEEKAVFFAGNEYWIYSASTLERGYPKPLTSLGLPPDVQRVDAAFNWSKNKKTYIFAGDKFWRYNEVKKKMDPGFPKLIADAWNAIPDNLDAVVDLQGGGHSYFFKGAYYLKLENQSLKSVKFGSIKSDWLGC

[3] = individual phage substrates, set of 1369 peptides, hyphen in sequence marks cleavage position
[4] = RP of the P3-P1' tetramer contained in the substrate (substrate phage display with NGS)
[5] = individual phage substrates, set of 1369 peptides, cleavage position marked by hyphen in sequence
[6] = individual phage substrate of the set of 1369 peptides, dash in the sequence marks the cleavage position
[7] = RP of the P3-P1' tetramer contained in the substrate
[8] = individual phage substrate of the set of 1369 peptides, cleavage position marked by '-'

Chain of MMP-9 (P14780 94-707): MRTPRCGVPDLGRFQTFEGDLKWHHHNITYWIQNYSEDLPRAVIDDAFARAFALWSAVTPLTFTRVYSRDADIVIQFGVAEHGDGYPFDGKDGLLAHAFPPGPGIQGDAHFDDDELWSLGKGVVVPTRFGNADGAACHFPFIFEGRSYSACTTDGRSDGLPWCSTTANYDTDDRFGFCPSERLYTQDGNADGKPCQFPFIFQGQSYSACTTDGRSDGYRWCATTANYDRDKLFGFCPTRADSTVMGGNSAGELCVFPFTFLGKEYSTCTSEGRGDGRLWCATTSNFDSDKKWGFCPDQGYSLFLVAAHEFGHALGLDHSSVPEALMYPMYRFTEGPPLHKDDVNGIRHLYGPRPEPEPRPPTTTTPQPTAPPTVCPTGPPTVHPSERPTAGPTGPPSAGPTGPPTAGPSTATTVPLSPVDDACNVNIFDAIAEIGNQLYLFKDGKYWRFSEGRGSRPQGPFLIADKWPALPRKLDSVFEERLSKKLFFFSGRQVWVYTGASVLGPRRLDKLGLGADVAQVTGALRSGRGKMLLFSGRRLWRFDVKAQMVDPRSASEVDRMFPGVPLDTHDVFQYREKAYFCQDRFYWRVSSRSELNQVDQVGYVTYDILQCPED

| Substance | Kobs (MMP-9; [3]) [M⁻¹ s⁻¹] | relative probability (RP) (MMP-2 [1]; [4]) | Kobs (MMP-2 [2]; [5]) [M⁻¹ s⁻¹] | Kobs (MMP-9; [6]) [M⁻¹ s⁻¹] | relative probability (RP) (MMP-2 [1]; [7]) | Kobs (MMP-2 [2]; [8]) [M⁻¹ s⁻¹] |
| --- | --- | --- | --- | --- | --- | --- |
| SGPFH-LSRTA | 2280.5 | 23.4724 | 84.609 |  |  |  |
| GNPLP-QMTAS | 1870.4 | 24.381 | 2157.02 |  |  |  |
| MSLGN-LTASG | 292.668 | 33.3542 | 12792.1 |  |  |  |
| GKVSE-LITAS | 142.481 | 24.0996 | 231.616 |  |  |  |
| RTMLH-MTASG | 261.974 | 4.713 | 619.843 |  |  |  |
| PQVWY-LTASG | 5889.62 | 3.667 | 4205.91 |  |  |  |
| AHYAS-LTASG |  |  |  | 0 | 26.9916 | 10866.7 |
| GQPRG-LRTAS |  |  |  | 12792.1 | 35.2511 | 12792.1 |
| SGVMG-IRITA |  |  |  | 1418.96 | 12.4242 | 484.315 |
| SIHLA-LTASG | 171.876 | 11.3603 | 1561.44 |  |  |  |
| RTASH-LTASG |  |  |  | 84.609 | 19.8208 | 8321.48 |
| RAPLH-MTASG |  |  |  | 12792.1 | 30.0095 | 2916.17 |
| PMVRW-LTASG | 12792.1 | 25.891 | 12792.1 |  |  |  |
| SGPLG-ITLTA | 12792.1 | 33.936 | 12792.1 |  |  |  |
| GSGQH-LRVHT | 0 | 1.164 | 113.394 |  |  |  |
| SGPRS-MLNTA |  |  |  | 5461.43 | 32.6673 | 6688.74 |
| RYAQP-LTASG | 2409.72 | 14.4283 | 4205.91 |  |  |  |
| SGPHH-LTLTA |  |  |  | 1925.41 | 27.4742 | 1327.88 |

| Substance | Kobs (MMP-9; [3]) [M⁻¹ s⁻¹] | relative probability (RP) (MMP-2 [1]; [4]) | Kobs (MMP-2 [2]; [5]) [M⁻¹ s⁻¹] | Kobs (MMP-9; [6]) [M⁻¹ s⁻¹] | relative probability (RP) (MMP-2 [1]; [7]) | Kobs (MMP-2 [2]; [8]) [M⁻¹ s⁻¹] |
| --- | --- | --- | --- | --- | --- | --- |
| VIPRP-LTASG |  |  |  | 12792.1 | 34.3303 | 12792.1 |
| GQVDY-LMTAS | 0 | 1.426 | 0 |  |  |  |
| GVIRF-LRTAS |  |  |  | 9740.44 | 12.1004 | 10866.7 |
| QRPAQ-LTASG | 12792.1 | 32.8467 | 12792.1 |  |  |  |
| YEPRN-VTASG | 10866.7 | 26.6015 | 12792.1 |  |  |  |
| GFPLM-YATAS |  |  |  | 1763.55 | 17.2027 | 142.481 |
| RQWYG-ITASG |  |  |  | 4922.1 | 0.0533 | 142.481 |
| SGAQM-LRGTA | 5461.43 | 8.608 | 4082.43 |  |  |  |
| GRLGN-LWTAS |  |  |  | 0 | 33.3542 | 5667.28 |
| GTVRS-LITAS | 2476.66 | 12.3051 | 8941.32 |  |  |  |
| SGARS-LKGTA | 12792.1 | 17.186 | 9740.44 |  |  |  |
| QAPMG-LTASG |  |  |  | 9740.44 | 34.7865 | 3438.54 |
| GRPRG-LTTAS |  |  |  | 12792.1 | 35.2511 | 12792.1 |
| TFARS-LTASG | 5889.62 | 17.186 | 8941.32 |  |  |  |
| TSFRM-LTASG | 0 | 0.2112 | 0 |  |  |  |
| VKAYN-LTASG | 9740.44 | 20.8713 | 8941.32 |  |  |  |
| GAPWG-IHTAS |  |  |  | 12792.1 | 25.1508 | 12792.1 |
